The results in this text go back to US10266510B2, “Antimicrobial and cytotoxic compounds and methods for treating cancer, a bacterial infection, and/or a fungal infection” (King Abdulaziz University, priority 2017, dated 2019).

What all share (assay type): cell-based
For experiment [1], the system named is Aspergillus flavus ATCC 16883. Nature of the experiment: Well diffusion agar method, inhibition zone. Conditions: for zone of inhibition at 50 µg/mL: Aspergillus flavus, ATCC16883; for Antifungal activity (in words): A. flavus, in comparison with Neomycin. The text has this: (§1) The ability to inhibit the growth of Gram-positive and Gram-negative bacteria, yeasts and filamentous fungi was observed using an overlay method (S. R. Connell, D. M. Tracz, K. H. Nierhaus, D. E. Taylor, Antimicrob. Agents Chemother. 47, 3675 (2003), incorporated herein by reference in its entirety).
(§2) The common pathogenic and food spoilage microorganisms were selected for their relevance in bakery products and other food: the gram-positive bacteria: Bacillus subtilits NRRL-B-4219, Staphylococcus aureus ATCC 6538, Enterococcus faecalis ATCC 19433; the gram negative bacteria: Escherichia coli ATCC 25922, Pseudomonas aeruginosa ATCC 9027, Proteus sp.; yeasts, such as Candida albicans ATCC 10231; and fungi: Aspergillus niger NRRL 2766 (equivalent to ATCC 16888), and Aspergillus flavus ATCC 16883. The bacteria were slanted on nutrient agar (Merck, Darmstadt, Germany), yeast was slanted and mentioned on Sabaroud's agar medium (Lab M., Bury, Lancashire, UK) and the fungi was slanted and mentioned on the potato Dextrose Agar medium (Lab M Limited, Bury, Lancashire, UK). Mueller-Hinton agar (Lab M., Bury, Lancashire, UK) following the manufacturer's instructions was used for the assay.
(§3) All compounds were dissolved in dimethyl sulfoxide (RFCL Limited, New Delhi, India) at 50 μg/mL concentration as shown in Table 4 in comparison with different standard antibiotics. Antibiotic discs of Streptomycin (S) (10 μg), Oxytetracycline (T) (30 μg), and Tetracyciline (TE) (30 μg) were used as positive controls for bacteria. Neomycin (N) (30 μg), was used for fungi.
(§4) The antibacterial screening was performed with the well diffusion agar method (S. T. Williams, M. Goodfellow, E. M. H. Wellington, J. C. Vickers, G. Alderson, P. H. A. Sneath, S. M. J. Sackins, A. M. Mortimer, J. Gen. Microbiol. 129, 1815(1983); and B. Bonev, J. Hooper, J. Parisot, J. Antimicrob. Chemother., 61, 1295(2008), each incorporated herein by reference in their entirety). The organisms were streaked in radial patterns on the agar plates. Plates were incubated under aerobic conditions at 37° C. and 28° C. for 24 h and 48 h for bacteria and fungi, respectively. All prepared solutions were treated under the same conditions under the same incubated plates. All tests were performed in triplicate. Plates were examined for evidence of antimicrobial activities, represented by a zone of inhibition of the microorganism's growth around the holes, and diameters of clear zones were expressed in millimeters (R. Cruickshank, J. P. Duguid, B. P. Marmion, R. H. A. Swain, The practice of medicinal microbiology. In Medical Microbiology, 12th ed.; Churchill Livingstone: Edinburgh, UK, Volume 11, pp. 196-202 (1975), incorporated herein by reference in its entirety).

Experiment [2] has as its system Aspergillus niger NRRL 2766. Nature of the experiment: Well diffusion agar method, inhibition zone. Conditions: for zone of inhibition at 50 µg/mL / Antifungal effect (in words): Aspergillus niger; for zone of inhibition at 50 µg/mL: NRRL2766; for Antifungal effect (in words): in comparison with Neomycin.
Source text: as §1, §2, §3, §4
Background: In agar diffusion tests the substance spreads into inoculated agar from a disc or well.

Experiment [3] deals with Bacillus subtilits NRRL-B-4219. The experiment is described as follows: Well diffusion agar method, inhibition zone. The following applies: compound at 50 μg/mL in DMSO, 37° C., 24 h; for zone of inhibition at 50 µg/mL: Bacillus, NRRLB4219.
Source text: as §1, §2, §3, §4

The subject of experiment [4] is Candida albicans ATCC 10231. Nature of the experiment: Well diffusion agar method, inhibition zone. Conditions: compound at 50 μg/mL in DMSO, 28° C., 48 h; for zone of inhibition at 50 µg/mL: Candida albicans, ATCC10231.
Source text: as §1, §2, §3, §4

For experiment [5], the system named is Enterococcus faecalis ATCC 19433. The experiment is described as follows: Well diffusion agar method, inhibition zone. The following applies: compound at 50 μg/mL in DMSO, 37° C., 24 h; for zone of inhibition at 50 µg/mL: Enterococcus faecalis, ATCC19433, read-out: Inhibition zone, Ent. faecalis.
Source text: as §1, §2, §3, §4

Experiment [6] relates to Escherichia coli ATCC 25922. Nature of the experiment: Well diffusion agar method, inhibition zone. The following applies: compound at 50 μg/mL in DMSO, 37° C., 24 h; for zone of inhibition at 50 µg/mL: Escherichia coli, ATCC25922, read-out: Inhibition zone, E. coli.
Source text: as §1, §2, §3, §4

The next experiment relates to Proteus sp. Nature of the experiment: Well diffusion agar method, inhibition zone. Conditions: compound at 50 μg/mL in DMSO; 37° C., 24 h.
Source text: as §1, §2, §3, §4

Experiment [7] relates to Pseudomonas aeruginosa ATCC 9027. The experiment is described as follows: Well diffusion agar method, inhibition zone. Conditions: compound at 50 μg/mL in DMSO, 37° C., 24 h; for zone of inhibition at 50 µg/mL: Pseudomonas aeruginosa, ATCC9027, read-out: Inhibition zone, P. aeruginosa.
Source text: as §1, §2, §3, §4

Experiment [8] concerns Staphylococcus aureus ATCC 6538. The experiment is described as follows: Well diffusion agar method, inhibition zone. Conditions: compound at 50 μg/mL in DMSO, 37° C., 24 h; for zone of inhibition at 50 µg/mL: Staphylococcus aureus, ATCC6538, read-out: Inhibition zone, S. aureus.
Source text: as §1, §2, §3, §4

Experiment [9] relates to Aspergillus flavus ATCC 16883. The experiment is described as follows: MIC by agar well diffusion method. Conditions: 25° C., 48 h, dilutions 50 to 500 μg/mL; for MIC: Aspergillus flavus, ATCC16883. From the text:
(§5) The common pathogenic and food spoilage microorganisms were selected for their relevance in bakery products and other food: the gram-positive bacteria: Bacillus subtilits NRRL-B-4219, Staphylococcus aureus ATCC 6538, Enterococcus faecalis ATCC 19433; the gram negative bacteria: Escherichia coli ATCC 25922, Pseudomonas aeruginosa ATCC 9027, Proteus sp.; yeasts, such as Candida albicans ATCC 10231; and fungi: Aspergillus niger NRRL 2766 (equivalent to ATCC 16888), and Aspergillus flavus ATCC 16883. The bacteria were slanted on nutrient agar (Merck, Darmstadt, Germany), yeast was slanted and mentioned on Sabaroud's agar medium (Lab M., Bury, Lancashire, UK) and the fungi was slanted and mentioned on the potato Dextrose Agar medium (Lab M Limited, Bury, Lancashire, UK). Mueller-Hinton agar (Lab M., Bury, Lancashire, UK) following the manufacturer's instructions was used for the assay. The in vitro minimum inhibitory concentration (MIC) of the synthesized compounds was determined by the agar well diffusion method. DMSO was used to prepare different concentrations ranging from 50 to 500 μg/mL by serial dilutions. The media were inoculated with 100 μL of each of the 10^6 cfu/mL bacterial and fungal strains, and the assay was applied by an agar well diffusion method. Blank DMSO was used as negative control. The plates were incubated aerobically in an incubator at 37° C. for 24 h for bacterial strains and 25° C. for 48 h for fungal strains. The MIC was taken as the lowest concentration in the series dilution that prevented bacterial growth.

Experiment [10] has as its system Bacillus subtilits NRRL-B-4219. Nature of the experiment: MIC by agar well diffusion method. The following applies: 37° C., 24 h, dilutions 50 to 500 μg/mL; for MIC: Bacillus, NRRLB4219.
Source text: as §5

Where [11] appears, read: compound at 50 μg/mL in DMSO, 28° C., 48 h.

Converted amounts (≈) assume the structure as drawn.

Broadly, the MIC is the smallest concentration in the dilution series that meets the test's criterion for growth inhibition. On to `CCOC1Oc2ccccc2C(=O)C1=NNc1ccccc1OC` (stereo not shown) [Compound 6b, 2-ethoxy-3-(2-(2-methoxyphenyl)hydrazono)chroman-4-one], for which the zone of inhibition at 50 µg/mL was determined as 0 mm in [1] (setting [11]); 0 mm in experiment [2] (setting [11]); 16 mm in experiment [3]; 0 mm in experiment [4]; 0 mm in experiment [5]; 12 mm in [6]. For the same compound, the zone of inhibition at 50 µg/mL with Proteus sp. worked out at 0 mm; in experiment [7], 0 mm; in experiment [8] it was 13 mm. Besides, the MIC in [9] is 350 µg/mL (≈ 1070 µM); in [10], 200 µg/mL (≈ 613 µM).
In the case of `CCOC1Oc2ccccc2C(=O)C1=NNc1ccc(Cl)cc1` (stereo not shown) [Compound 6c, 3-[(4-Chlorophenyl)hydrazono]-2-ethoxychroman-4-one], the “Antifungal activity (in words)” value in experiment [1] is “moderate activity”. Further, the zone of inhibition at 50 µg/mL turned out to be 17 mm in [1] (setting [11]); 18 mm in [2] (setting [11]); 32 mm in [3]; 20 mm in experiment [4]; 21 mm in experiment [5]; 30 mm in experiment [6]. Further, the zone of inhibition at 50 µg/mL with Proteus sp. was 26 mm; in experiment [7], 28 mm; in experiment [8], 30 mm. Moreover, in experiment [2], the “Antifungal effect (in words)” value is recorded as “more potent antifungal effect”. Moreover, the figures for the MIC in experiment [9] and in experiment [10] were 200 µg/mL (≈ 605 µM) and 75 µg/mL (≈ 227 µM), respectively.
With “Ethoxy-3-[(4-nitro-phenyl)-hydrazono]-chroman-one [Compound 6a]”, the “Antifungal activity (in words)” value in experiment [1] was “moderate activity”. In addition, the “Inhibition zone, A. flavus” value in experiment [1] (setting [11]) came to 22 mm. In addition, the “Antifungal effect (in words)” value in [2] is reported as “more potent antifungal effect”. Also, in [2] (setting [11]), the “Inhibition zone, A. niger” value worked out at 22 mm. Moreover, the “Inhibition zone, B. subtilits” value in experiment [3] turned out to be 32 mm. Besides, the “Inhibition zone, C. albicans” value in experiment [4] was 24 mm. Further, in experiment [5], the “Inhibition zone, Ent. faecalis” value is 25 mm. Further, in experiment [6], the “Inhibition zone, E. coli” value is recorded as 33 mm. For the same compound, in the experiment with Proteus sp., the “Inhibition zone, Proteus sp.” value is reported as 27 mm. In experiment [7], the “Inhibition zone, P. aeruginosa” value worked out at 30 mm. In [8], the “Inhibition zone, S. aureus” value was 28 mm. Also, in experiment [9], the “MIC, A. flavus” value was 250 µg/mL. Moreover, the “MIC, B. subtilits” value in experiment [10] came out at 150 µg/mL.
